One series concerns LAV strain of HIV. The experiment in a line: Assay of anti-HIV activity: HIV production in infected MT-4 cells. Type of series: cell-based. The note with it: in the dark, result in words.
The subject of series [1] is Herpes simplex virus (HSV) type 1, strain WT-51. The experiment in a line: Anti-HSV activity: virus infectivity in culture fluid of infected BS-C-40 monolayers by plaque method. Type of series: cell-based. The conditions noted are these: m.o.i. 0.01, 18 hours of incubation, result in words. The procedure: Herpes simplex virus (HSV) type 1, strain WT-51, and BS-C-40, an African green monkey kidney cell line, were used. HSV stock was prepared in BS-C-40 and the infectivity of the virus was measured on BS-C-40 monolayers by plaque method. Eagle's minimal essential medium (MEM) supplemented with 8% newborn calf serum was used as the culture medium and cells were incubated at 37°C in a humidified CO₂-incubator (5% CO₂, 95% air).
BS-C-40 monolayers were infected with HSV at the m.o.i. of 0.01 at 37°C for 1 hour and the monolayers were washed with MEM, and fresh culture medium was added. After 18 hours of incubation in the presence or absence of protoporpyrin, the virus infectivity in the culture fluid was measured by plaque method.
Two tenths ml aliquots of serially 10-fold diluted virus were inoculated onto confluent monolayer of cells in 35 mm plastic petridishes. After adsorption of the virus at 37°C for 1 hour, the monolayers were overlaid with 2 ml of MEM with 1% methylcellulose and 2% newborn calf serum. On day 3, the monolayers were stained with neutral red and plaque counts were made.

For series [2] the following is noted: mouse, cited from earlier work.
For series [3] the following is noted: intravenous, rat; cited from earlier work.
The conditions of series [4]: intravenous, rabbit; cited from earlier work.
For series [5] the following is noted: intravenous, cat; cited from earlier work.

We go through one compound from EP0337598A2, “Use of porphyrins and metalloporphyrins in the treatment of diseases caused by Human Immunodeficiency Viruses” (GEORGIA STATE UNIVERSITY FOUNDATION, INC., priority 1988, dated 1989).

Structures can show the parent of a compound that is named as a salt. Where two headings read alike, the source gives them in different places. Where only a bound is given, the exact number is not on record here.

For the compound `C=CC1=C(C)c2cc3[nH]c(cc4nc(cc5[nH]c(cc1n2)c(C)c5CCC(=O)O)C(CCC(=O)O)=C4C)c(C)c3C=C` [Protoporphyrin disodium salt], in the series on LAV strain of HIV, the “anti-HIV activity (antivirally active when production of HIV was reduced as compared with the control)” value was “potent anti-HIV activity”. Moreover, the anti-HSV activity result in series [1] is “no anti-HSV activity”. The LD₅₀ is 1,028.6 mg/kg in series [2] (intraperitoneal); 347.3 mg/kg in series [2] (intravenous); > 25,000.0 mg/kg in series [2] (oral); 1,147.0 mg/kg in series [2] (subcutaneous); 240.3 mg/kg in series [3]; 220.0 mg/kg in series [4]. Also, the LD₅₀ in series [5] is recorded as 215.5 mg/kg.
